Among the data in PubChem BioAssay (NCI) are GI50 and TGI values, retold here.

Among the test systems are BT-549 breast; PC-3 prostate; UACC-62 melanoma; RXF 393 renal; NCI/ADR-RES ovarian; HS 578T breast; CCRF-CEM leukemia.
Holding throughout (assay): NCI tumour cell line growth inhibition, 48 h

Where “and” joins values, the source holds several entries; their conditions need not be identical. Equal entries are not always repeated.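 Dose response: 5 concentrations. Exposure: 48 h. Format: 96-well plates. Endpoint: linear interpolation; highest concentration if not reached. Here, GI50 denotes the concentration required for 50% inhibition of growth. TGI: total growth inhibition.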

For the compound `N#Cc1c(N)nc(N2CCOCC2)c(C#N)c1-c1ccc(Cl)cc1`, the GI50 with BT-549 breast is 32 µM; in the assay on PC-3 prostate it was 16.6 µM; with UACC-62 melanoma it was 23 µM; in the assay with RXF 393 renal, 0.475 µM; with NCI/ADR-RES ovarian, 23.6 µM; with HS 578T breast, 40.6 µM. Further, in the assay with CCRF-CEM leukemia, the GI50 is 34.5 µM. For the same compound, the TGI is greater than 100 µM in the assay on BT-549 breast; 70.1 µM in the assay with PC-3 prostate; greater than 100 µM in the assay on UACC-62 melanoma; 45.1 µM in the assay with RXF 393 renal; 76.2 µM in the assay with NCI/ADR-RES ovarian; greater than 100 µM in the assay on HS 578T breast. Also, the TGI in the assay on CCRF-CEM leukemia was greater than 100 µM.
For `COc1ccc(-c2nnc(SCC(=O)Nc3ccc(/C(C)=N\O)cc3)n2-c2ccccc2)cc1OC`, the GI50 in the assay with BT-549 breast is 13.7 µM; in the assay with PC-3 prostate, greater than 100 µM; in the assay on UACC-62 melanoma it was greater than 100 µM; in the assay with RXF 393 renal, 2.56 µM; with NCI/ADR-RES ovarian, greater than 100 µM; with HS 578T breast, 3.75 µM. Besides, in the assay with CCRF-CEM leukemia, the GI50 is greater than 100 µM. Moreover, the TGI in the assay with BT-549 breast was greater than 100 µM; in the assay on PC-3 prostate, greater than 100 µM; in the assay on UACC-62 melanoma, greater than 100 µM; with RXF 393 renal, 7.11 µM; in the assay on NCI/ADR-RES ovarian, greater than 100 µM; in the assay on HS 578T breast, greater than 100 µM. In addition, the TGI with CCRF-CEM leukemia is greater than 100 µM.
Consider `C=CCNCCCN1C(=O)c2ccc3c4c(ccc(c24)C1=O)C(=O)N(CCCNCC=C)C3=O`, for which the GI50 with BT-549 breast is 1.78 µM; with PC-3 prostate it was 0.589 µM; in the assay with UACC-62 melanoma, 0.684 µM; with RXF 393 renal, 0.344 µM; in the assay on NCI/ADR-RES ovarian, 1.74 µM; in the assay with HS 578T breast it was 1.3 µM. Also, in the assay with CCRF-CEM leukemia, the GI50 was 0.349 µM. Besides, the TGI in the assay with BT-549 breast worked out at 3.63 µM; in the assay with PC-3 prostate it was 11 µM; in the assay on UACC-62 melanoma, 1.76 µM; with RXF 393 renal, 1.52 µM; in the assay with NCI/ADR-RES ovarian it was 12.6 µM; with HS 578T breast, 5.16 µM. This compound also registered a TGI with CCRF-CEM leukemia of 3.78 µM.
In the case of `COc1ccc(C/C(C)=C(\c2ccc(OCCN3CCOCC3)cc2)c2ccc(OC(=O)Cc3ccccc3)cc2)cc1`, the GI50 in the assay on BT-549 breast was 0.502 µM; with PC-3 prostate, 0.747 µM; with UACC-62 melanoma, 0.527 µM; in the assay on RXF 393 renal, 0.438 µM; with NCI/ADR-RES ovarian, 0.961 µM; in the assay with HS 578T breast, 0.658 µM. In the assay with CCRF-CEM leukemia, the GI50 is 0.813 µM. Moreover, the TGI in the assay with BT-549 breast was 0.996 µM; with PC-3 prostate, 2.97 µM; in the assay with UACC-62 melanoma it was 1.06 µM; in the assay with RXF 393 renal, 0.883 µM; in the assay with NCI/ADR-RES ovarian it was 12.5 µM; with HS 578T breast it was 1.67 µM. The compound further returned a TGI with CCRF-CEM leukemia of 8.27 µM.
Consider `O=C1/C(=C/c2ccccc2F)CNC/C1=C\c1ccccc1F`, for which the GI50 in the assay on BT-549 breast was 0.434 µM and 0.782 µM; with PC-3 prostate, 0.295 µM and 0.551 µM; in the assay on UACC-62 melanoma, 6.38 µM and 1.5 µM; in the assay with RXF 393 renal, 0.385 µM and 0.728 µM; in the assay with NCI/ADR-RES ovarian, 0.665 µM and 0.699 µM; in the assay on HS 578T breast, 0.533 µM and 4.11 µM. Further, the GI50 in the assay with CCRF-CEM leukemia was 0.193 µM and 0.314 µM. Also, the TGI was 1.43 µM and 2.25 µM in the assay on BT-549 breast; 1.07 µM and 3.2 µM with PC-3 prostate; 10.3 µM and 3.72 µM with UACC-62 melanoma; 1.12 µM and 1.87 µM in the assay with RXF 393 renal; 6.57 µM and 12.8 µM in the assay on NCI/ADR-RES ovarian; 3.38 µM and 1.61 µM with CCRF-CEM leukemia.
As for `COc1cc(C(O)c2nc3ccccc3s2)cc(OC)c1OC` (stereo not given), the GI50 in the assay on BT-549 breast is 60.6 µM; in the assay with PC-3 prostate, 15.9 µM; in the assay with UACC-62 melanoma, 37.8 µM; in the assay on RXF 393 renal, greater than 100 µM; in the assay with NCI/ADR-RES ovarian, 8.96 µM; with HS 578T breast, 40.5 µM. Moreover, the GI50 in the assay with CCRF-CEM leukemia was 49.5 µM. In addition, the TGI in the assay with BT-549 breast, with PC-3 prostate, in the assay on UACC-62 melanoma, in the assay on RXF 393 renal, in the assay on NCI/ADR-RES ovarian and in the assay on HS 578T breast was greater than 100 µM in each case. In addition, the TGI with CCRF-CEM leukemia was greater than 100 µM.
For the compound `Cc1nn(-c2ccccc2)c2c1CC(=O)Nc1ccccc1-2`, the GI50 is 0.279 µM in the assay on PC-3 prostate, 0.158 µM in the assay on UACC-62 melanoma and 0.112 µM with CCRF-CEM leukemia. In addition, the TGI in the assay on UACC-62 melanoma was 73.4 µM; in the assay on RXF 393 renal it was 5.85 µM; with NCI/ADR-RES ovarian, 3.73 µM.
As to `NC(=O)c1cc([N+](=O)[O-])c(Cl)c([N+](=O)[O-])c1`, the GI50 in the assay on BT-549 breast is 2.52 µM; in the assay with PC-3 prostate it was 1.91 µM; in the assay on UACC-62 melanoma, 2.43 µM; in the assay on RXF 393 renal it was 1.69 µM; in the assay with NCI/ADR-RES ovarian it was 3.67 µM; in the assay on HS 578T breast, 11.9 µM. Further, the TGI is 5.56 µM with BT-549 breast; 4.26 µM in the assay on PC-3 prostate; 7.13 µM in the assay on UACC-62 melanoma; 3.11 µM in the assay on RXF 393 renal; 13.9 µM in the assay with NCI/ADR-RES ovarian; 29.4 µM with HS 578T breast.
For the compound `C[C@H]1[C@H](C)CC[C@]2(C(=O)N3CCN(C)CC3)CC[C@]3(C)C(=CC[C@@H]4[C@@]5(C)C/C(=C/c6cccnc6)C(=O)C(C)(C)[C@@H]5CC[C@]43C)[C@H]12`, the GI50 is 0.541 µM with PC-3 prostate; 1.15 µM in the assay with UACC-62 melanoma; 1.24 µM with RXF 393 renal; 1.43 µM in the assay on HS 578T breast; 2 µM in the assay on CCRF-CEM leukemia. The TGI in the assay on PC-3 prostate was determined as 1.85 µM; with UACC-62 melanoma, 2.52 µM; in the assay with RXF 393 renal, 2.55 µM; in the assay with HS 578T breast it was 5.4 µM; in the assay on CCRF-CEM leukemia, 5.64 µM.
`CN(C)c1ccc(-c2cc(-c3ccc(Nc4nc(Nc5ccccc5)nc(Nc5ccc(Cl)cc5)n4)cc3)nc(N)n2)cc1`: the GI50 in the assay with BT-549 breast was 3.64 µM; with UACC-62 melanoma it was 6.26 µM; with RXF 393 renal, 2.78 µM; in the assay on NCI/ADR-RES ovarian it was 9.23 µM; in the assay on HS 578T breast, 2.57 µM; in the assay with CCRF-CEM leukemia it was 3.73 µM. The TGI with BT-549 breast was 25 µM; in the assay with UACC-62 melanoma it was 40 µM; in the assay with RXF 393 renal, 12.9 µM; in the assay with NCI/ADR-RES ovarian it was greater than 100 µM; in the assay with HS 578T breast, 20.2 µM; with CCRF-CEM leukemia it was 23 µM.
`CCN(CCNc1ccc(C)c2sc3cc(Cl)ccc3c(=O)c12)CC(C)O` (stereo not given): the GI50 with BT-549 breast was 2.71 µM; in the assay with PC-3 prostate, 1.74 µM; in the assay with UACC-62 melanoma, 1.82 µM; in the assay on NCI/ADR-RES ovarian, 2.07 µM; in the assay with HS 578T breast it was 2.23 µM; with CCRF-CEM leukemia, 2.02 µM. Further, the TGI with BT-549 breast was 10.1 µM; in the assay with PC-3 prostate, 3.31 µM; in the assay with UACC-62 melanoma, 3.44 µM; in the assay on NCI/ADR-RES ovarian it was 4.08 µM; with HS 578T breast, 4.35 µM; in the assay on CCRF-CEM leukemia, 4.27 µM.
In the case of `COc1ccc(-c2cnnn2-c2cc(OC)c3c(c2)OCO3)cc1`, the GI50 in the assay on BT-549 breast was 0.101 µM; in the assay with PC-3 prostate, 0.167 µM; in the assay with UACC-62 melanoma it was 0.235 µM; in the assay with NCI/ADR-RES ovarian, 0.0403 µM; in the assay with HS 578T breast, 0.186 µM; in the assay with CCRF-CEM leukemia, 0.148 µM. The TGI in the assay on BT-549 breast is 28.6 µM; in the assay with PC-3 prostate, greater than 100 µM; in the assay on UACC-62 melanoma, greater than 100 µM; in the assay on HS 578T breast, greater than 100 µM; with CCRF-CEM leukemia it was greater than 100 µM.
For the compound `CCN1CCN(CC(=O)Nc2nc3ccc(NCc4ccc(Cl)cc4)cc3s2)CC1`, the GI50 was 10.6 µM with BT-549 breast; 2.08 µM in the assay on UACC-62 melanoma; 1.54 µM in the assay on RXF 393 renal; 2.88 µM in the assay on NCI/ADR-RES ovarian; 2.59 µM in the assay with HS 578T breast; 2.43 µM with CCRF-CEM leukemia. Also, the TGI with BT-549 breast is 25 µM; in the assay on UACC-62 melanoma, 4.03 µM; in the assay with RXF 393 renal, 3.05 µM; in the assay with NCI/ADR-RES ovarian, greater than 100 µM; in the assay with HS 578T breast, 9.09 µM; with CCRF-CEM leukemia, 8.22 µM.
Consider `CCCCCCC#Cc1ccccc1C#CCO`, for which the GI50 with BT-549 breast is 17 µM; in the assay on PC-3 prostate, 25.4 µM; with UACC-62 melanoma it was 19.1 µM; in the assay with RXF 393 renal, 16.6 µM; in the assay on NCI/ADR-RES ovarian, 18.7 µM; in the assay with HS 578T breast, 17.2 µM. For the same compound, the TGI with BT-549 breast stood at 32.9 µM; with PC-3 prostate, 95.2 µM; with UACC-62 melanoma, 43.6 µM; in the assay on RXF 393 renal, 32.9 µM; in the assay on NCI/ADR-RES ovarian, 34.4 µM; with HS 578T breast, 39.4 µM.
On to `CC(C)(O)C1CCC(Nc2ccc3ncc(-c4cccc(C(F)(F)F)c4)n3n2)CC1` (stereo not given), for which the GI50 in the assay with PC-3 prostate is 0.815 µM; in the assay with UACC-62 melanoma, 1.97 µM; in the assay on RXF 393 renal it was 1.11 µM; in the assay on NCI/ADR-RES ovarian, 2.7 µM; in the assay on HS 578T breast, 1.59 µM; with CCRF-CEM leukemia it was 0.946 µM. Further, the TGI in the assay with PC-3 prostate turned out to be 12.7 µM; with UACC-62 melanoma it was 8.83 µM; in the assay on RXF 393 renal, 2.81 µM; with NCI/ADR-RES ovarian, 19.5 µM; in the assay with HS 578T breast, 4.67 µM; with CCRF-CEM leukemia, 7.89 µM.
As for `c1cc(CCN2CCCCC2)ccn1`, the TGI in the assay with BT-549 breast, in the assay on PC-3 prostate, with UACC-62 melanoma, with RXF 393 renal, in the assay on NCI/ADR-RES ovarian and in the assay with HS 578T breast was greater than 100 µM in each case.
For `COc1ccc(-c2cc(-c3ccccc3)nc(N3CCN(CCNc4ccnc5cc(Cl)ccc45)CC3)n2)cc1`, the GI50 in the assay on BT-549 breast is 14.6 µM; in the assay on UACC-62 melanoma, 3.48 µM; in the assay with RXF 393 renal, 0.842 µM; in the assay with NCI/ADR-RES ovarian, 1.72 µM; in the assay with HS 578T breast it was 11.3 µM; with CCRF-CEM leukemia, 2.19 µM. Further, the TGI was 32.3 µM with BT-549 breast; 11.2 µM in the assay on UACC-62 melanoma; 2.27 µM with RXF 393 renal; 4.04 µM in the assay on NCI/ADR-RES ovarian; 41.9 µM in the assay with HS 578T breast; greater than 100 µM with CCRF-CEM leukemia.
